Structures can show the parent of a compound that is named as a salt.
What was measured:
[1] = Oral acute toxicity (LD50) in the mouse; settings: in vivo
"naive" rat [2] = assay: Spontaneous motor activity: ambulatory movements (exploratory activity), Opto-Varimex 3; format: in vivo; settings: for Contacts broken (exploratory activity/5 min.): first 5 minutes after injection
Experimental: (§1) (A) Spontaneous motor activity in the "naive" rat
(§2) Two aspects of motor function were recorded with a known "Opto-Varimex 3":
(a) "ambulatory" movements in the first 5 minutes after s.c. injection of B-HT 920; this phase of locomotor function corresponds to the so-called "exploratory activity" of rats in a new environment;
(§3) The following doses of B-HT 920 were tested: 0.02, 0.2, 2.0 mg/kg s.c.. As a comparison apomorphine was tested in a dosage of 0.1 mg/kg s.c.

"naive" rat [3] = assay: Spontaneous motor activity: non-ambulatory (stereotypical) movements, Opto-Varimex 3; format: in vivo; settings: for Stereotypical movements (Movements/15 min.): from 55 minutes after injection
Experimental: as §1, §2
(b) "non-ambulatory" movements which are made up essentially of stereotypical movements, which began to be recorded 45 minutes after the animals had been put into the recording cage (and 55 minutes after s.c. injection).
as §3

[4] = test system: postsynaptic dopamine (DA) receptors; assay: Ipsilateral rotation in the ibotenic acid model; format: in vivo, rat
[5] = test system: denervated post-synaptic DA receptors; assay: Contralateral rotation on the 6-OHDA model; format: in vivo, rat
[6] = test system: MPTP Parkinsonism syndrome; assay: MPTP model of Parkinson's disease in Rhesus monkeys; format: in vivo
Excerpt: The irreversible neurological syndrome triggered in monkeys and humans by MPTP largely resembles idiopathic Parkinson's disease in its clinical, pathological, biochemical and pharmacological features (Markey et al., Nature 311, 464 (1984)). The reason for this strong similarity is the fact that MPTP selectively destroys the small group of dopaminergic nerve cells in the substantia nigra of the brain which are also destroyed by degenerative processes in naturally occurring Parkinson's disease. There is even some discussion to the effect that idiopathic Parkinson's disease might be caused by MPTP or a similar chemical compound formed in the organism (Snyder, S. H., Nature 311, 514 (1984)). Possibly as a result of the specific metabolism of MPTP, the clinical features of the MPTP Parkinsonism syndrome have been thusfar only been detected in monkeys and man. The MPTP model produced in Rhesus monkeys is therefore exceptionally suitable for testing the effect of anti-Parkinson's drugs.
Voluntary movements of the hindquarters and extremities could not generally be initiated even by extreme and painful stimulation.
After the intramuscular administration of B-HT 920 (50-100 mcg/kg) the first voluntary movements occurred at a time interval of 5 to 10 minutes, followed in the next 10 to 30 minutes by a gradual, extensive normalization of motor function. The animals were capable of taking food. They maintained thier normal posture within their cages and also behaved normally in terms of vigilance and species-specific behavior. […] There was no sedation.

[7] = test system: presynaptic dopaminergic receptors; settings: Anden et al., 1983; cited from earlier work

C=CCN1CCc2nc(N)sc2CC1 [Compound A, 2-amino-6-allyl-5,6,7,8-tetrahydro-4H-thiazolo[4,5-d]azepine]
LD50 [1]: 455 mg/kg

C=CCN1CCc2nc(N)sc2CC1 [B-HT 920, 2-amino-6-allyl-5,6,7,8-tetrahydro-4H-thiazole-[4,5-d]azepine dihydrochloride]
Contacts broken (exploratory activity/5 min.) ("naive" rat [2]; 0.02 mg/kg s.c.): 380 /5 min. | Contacts broken (exploratory activity/5 min.) ("naive" rat [2]; 0.2 mg/kg s.c.): 150 /5 min. | Inhibitory effect on the exploratory activity ("naive" rat [2]; 0.2 mg/kg, compared with 0.1 mg/kg of apomorphine): almost maximum | Contacts broken (exploratory activity/5 min.) ("naive" rat [2]; 2.0 mg/kg s.c.): 130 /5 min. | Stereotypical movements (Movements/15 min.) ("naive" rat [3]; 0.2 mg/kg s.c.): 370 Movements/15 min. | Stereotypical movements (Movements/15 min.) ("naive" rat [3]; 2.0 mg/kg s.c.): 310 Movements/15 min. | Stereotypical movements (Movements/15 min.) ("naive" rat [3]; 4.0 mg/kg s.c.): 340 Movements/15 min. | Increase in the number of stereotypical movements ("naive" rat [3]; any of the doses tested): did not lead to an increase in the number of stereotypical movements | Ipsilateral rotations/duration of activity ([4]; 0.2 mg/kg s.c., up to 6 hours): 37 Ipsilateral rotations/duration of activity | Ipsilateral rotations/duration of activity ([4]; 0.5 mg/kg s.c., up to 6 hours): 54 Ipsilateral rotations/duration of activity | Ipsilateral rotations/duration of activity ([4]; 1.0 mg/kg s.c., up to 6 hours): 102 Ipsilateral rotations/duration of activity | Ipsilateral rotations/duration of activity ([4]; 2.0 mg/kg s.c., up to 6 hours): 96 Ipsilateral rotations/duration of activity | Activity on the normally sensitive DA receptor (in words) ([4]; compared with apomorphine): only a weak activity | Post-synaptic DA-agonistic activity relative to apomorphine on the normally sensitive DA receptor ([4]; fraction of the activity of apomorphine): about one eighth | Contralateral rotations up to 6 hours ([5]; 0.02 mg/kg): 168 Contralateral rotations | Contralateral rotations up to 6 hours ([5]; 0.05 mg/kg): 582 Contralateral rotations | Contralateral rotations up to 6 hours ([5]; 0.5 mg/kg): 1282 Contralateral rotations | Contralateral rotations up to 6 hours ([5]; 1.0 mg/kg): 1442 Contralateral rotations | Activity on denervated receptors ([5]; by contrast with its weak effect on normal DA receptors): exceptionally strong activity on denervated receptors | Behavior of the animals after administration ([6]; 50-100 mcg/kg intramuscular): The animals were capable of taking food. They maintained thier normal posture within their cages and also behaved normally in terms of vigilance and species-specific behavior | Residual symptoms recorded ([6]; 50-100 mcg/kg intramuscular): an occasional, transient, slight resting tremor and a reduction in brute strength | Sedation ([6]; 50-100 mcg/kg intramuscular): no sedation | Time after which the effect diminished ([6]; 50-100 mcg/kg intramuscular): about 3 hours | Blood supply to the skin ([6]; 50-100 mcg/kg intramuscular, compared with the state before administration): appeared to be increased | Effect of fresh administration on clinical pathological symptoms ([6]; after reversion to the Parkinson's symptoms): improvement or substantial removal of the clinical pathological symptoms | Side effects ([6]; at the dosages used): No side effects were discovered | Agonist effect on presynaptic dopaminergic receptors [7]: agonist with a selective effect on presynaptic dopaminergic receptors

CN1CCc2cccc3c2[C@H]1Cc1ccc(O)c(O)c1-3 [apomorphine, reference compound]
Contacts broken (exploratory activity/5 min.) ("naive" rat [2]; 0.1 mg/kg s.c.): 150 /5 min. | Stereotypical movements (Movements/15 min.) ("naive" rat [3]; 4.0 mg/kg s.c.): 650 Movements/15 min. | Ipsilateral rotations/duration of activity ([4]; 0.5 mg/kg s.c., up to 3 hours): 265 Ipsilateral rotations/duration of activity | Ipsilateral rotations/duration of activity ([4]; 1.0 mg/kg s.c., up to 3 hours): 436 Ipsilateral rotations/duration of activity | Ipsilateral rotations/duration of activity ([4]; 10.0 mg/kg s.c., up to 3 hours): 880 Ipsilateral rotations/duration of activity | Contralateral rotations up to 6 hours ([5]; 0.05 mg/kg): 557 Contralateral rotations

From patent US4645770A, “Agent for treating Parkinson's disease or Parkinsonism” (priority 1985, dated 1987)
